These results are taken from patent publication US20230054926A1, “COMPOSITIONS AND METHODS FOR MICROBIAL TREATMENT OF SKIN DISORDERS” (DUPONT US HOLDING, LLC, priority 2020, published 2023).

For the assay, the system named is M. globosa. Put plainly: Flow cytometry analysis of M. globosa growth inhibition by cell free fermentate. In kind it is cell-based, Malassezia globosa. To be noted: Example 6, 200 μl supernatant + 800 μl diluted culture, vs respective media control, amphotericin B 2.5 μg/ml. The protocol: The growth medium for Malassezia species was a modified Leeming & Notman (mLN) media that contained 10 g/L bacteriological peptone, 2 g/L yeast extract, 8 g/L desiccated ox bile, 10 ml/L glycerol, 0.5 g/L glycerol monostearate, 5 ml/L Tween-60 and 20 ml/L palm oil.
Lipid emulsion by the presence of lipids and surfactants in the mLN media as well as cell clumping phenotype of Malassezia spp, make it difficult to monitor cell growth by optical density measurement or colony counting after spreading a culture aliquot on plates, To circumvent this issue, flow cytometry with cell staining dyes was used to quantitatively measure cell growth in lipid emulsion media. […]
At different time points, 50 μl aliquot from each culture was subjected to mild sonication with amplitude of 5 and 1 sec on/off cycle for 30 sec using Qsonica 0700 (Qsonica, Newtown, Conn.). […] The samples were analyzed by flow cytometry using a Novocyte Quanteon (Asea). SytoBC, a cell permeable DNA/RNA intercalating dye was excited by the 488 laser and detected using a 530/30 bandwidth filter. Concanavalin A, a mannose binding lectin labeled with alexaFluor 640, was excited with the 637 nm laser and detected using a 660/20 bandwidth filter. […] Malassezia cell counts were determined by gating on high sytoBC, high ConA events and recording the event/ul values for each sample. […]
For orientation: In flow cytometry, cells or beads pass a laser one at a time.

Structures are written as SMILES.

Turning to `C[C@@H]1[C@H](O)[C@@H](C)/C=C/C=C/C=C/C=C/C=C/C=C/C=C/[C@H](O[C@@H]2O[C@H](C)[C@@H](O)[C@H](N)[C@@H]2O)C[C@@H]2O[C@](O)(C[C@@H](O)C[C@@H](O)[C@H](O)CC[C@@H](O)C[C@@H](O)CC(=O)O[C@H]1C)C[C@H](O)[C@H]2C(=O)O` [Amphotericin B, amphotericin B], the “% M. globosa growth inhibition” value (Day 1) came to 4% and the “% M. globosa growth inhibition” value (Day 3) was 88%.
